Active and inactive are the calls of the source.
Experiments:
[1] = biological target: T1, Olfactory receptor 51E2 (Homo sapiens) (UniProt Q9H255); assay: Agonist activity at PSGR/OR51E2 in human LNCaP cells assessed as induction of change in extracellular metabolites level by measuring lactic acid level at 1 mM incubated for 72 hrs by GC/MS analysis; assay type: cell-based
T1 sequence (whole entry): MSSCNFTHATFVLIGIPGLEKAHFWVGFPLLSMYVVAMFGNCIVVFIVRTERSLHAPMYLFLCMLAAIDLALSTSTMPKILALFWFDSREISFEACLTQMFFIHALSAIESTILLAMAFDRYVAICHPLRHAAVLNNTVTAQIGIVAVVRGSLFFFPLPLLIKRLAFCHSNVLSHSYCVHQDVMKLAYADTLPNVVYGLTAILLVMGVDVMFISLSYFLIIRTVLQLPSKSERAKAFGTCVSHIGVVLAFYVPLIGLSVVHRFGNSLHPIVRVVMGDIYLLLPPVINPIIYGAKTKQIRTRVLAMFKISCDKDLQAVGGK

[2] = biological target: T1, Olfactory receptor 51E2 (Homo sapiens); assay: Agonist activity at PSGR/OR51E2 in human LNCaP cells assessed as induction of change in intracellular metabolites level by measuring threonine level at 1 mM incubated for 72 hrs by GC/MS analysis; assay type: cell-based
[3] = biological target: T1, Olfactory receptor 51E2 (Homo sapiens); assay: Agonist activity at PSGR/OR51E2 in human LNCaP cells assessed as induction of change in extracellular metabolites level by measuring glutamic acid level at 1 mM incubated for 72 hrs by GC/MS analysis; assay type: cell-based
[4] = biological target: T1, Olfactory receptor 51E2 (Homo sapiens); assay: Agonist activity at PSGR/OR51E2 in human LNCaP cells assessed as induction of change in intracellular metabolites level by measuring lactic acid level at 1 mM incubated for 72 hrs by GC/MS analysis; assay type: cell-based
[5] = biological target: T1, Olfactory receptor 51E2 (Homo sapiens); assay: Agonist activity at PSGR/OR51E2 in human LNCaP cells assessed as induction of change in intracellular metabolites level by measuring aspartic acid level at 1 mM incubated for 72 hrs by GC/MS analysis; assay type: cell-based
[6] = biological target: T1, Olfactory receptor 51E2 (Homo sapiens); assay: Agonist activity at PSGR/OR51E2 in human LNCaP cells assessed as induction of change in extracellular metabolites level by measuring aspartic acid level at 1 mM incubated for 72 hrs by GC/MS analysis; assay type: cell-based
[7] = biological target: T1, Olfactory receptor 51E2 (Homo sapiens); assay: Agonist activity at PSGR/OR51E2 in human LNCaP cells assessed as induction of change in extracellular metabolites level by measuring dehydro-alanine level at 1 mM incubated for 72 hrs by GC/MS analysis; assay type: cell-based
[8] = biological target: T1, Olfactory receptor 51E2 (Homo sapiens); assay: Agonist activity at PSGR/OR51E2 in human LNCaP cells assessed as induction of change in extracellular metabolites level by measuring glycine level at 1 mM incubated for 72 hrs by GC/MS analysis; assay type: cell-based
[9] = biological target: T1, Olfactory receptor 51E2 (Homo sapiens); assay: Agonist activity at PSGR/OR51E2 in human LNCaP cells assessed as induction of change in intracellular metabolites level by measuring spermidine level at 1 mM incubated for 72 hrs by GC/MS analysis; assay type: cell-based
[10] = biological target: T1, Olfactory receptor 51E2 (Homo sapiens); assay: Agonist activity at PSGR/OR51E2 in human LNCaP cells assessed as induction of change in extracellular metabolites level by measuring tyramine level at 1 mM incubated for 72 hrs by GC/MS analysis; assay type: cell-based
[11] = biological target: T1, Olfactory receptor 51E2 (Homo sapiens); assay: Agonist activity at PSGR/OR51E2 in human LNCaP cells assessed as induction of change in extracellular metabolites level by measuring spermidine level at 1 mM incubated for 72 hrs by GC/MS analysis; assay type: cell-based
[12] = biological target: T1, Olfactory receptor 51E2 (Homo sapiens); assay: Agonist activity at PSGR/OR51E2 in human LNCaP cells assessed as induction of change in intracellular metabolites level by measuring serine level at 1 mM incubated for 72 hrs by GC/MS analysis; assay type: cell-based
[13] = biological target: T1, Olfactory receptor 51E2 (Homo sapiens); assay: Agonist activity at PSGR/OR51E2 in human LNCaP cells assessed as induction of change in extracellular metabolites level by measuring lactose level at 1 mM incubated for 72 hrs by GC/MS analysis; assay type: cell-based
[14] = biological target: T1, Olfactory receptor 51E2 (Homo sapiens); assay: Agonist activity at PSGR/OR51E2 in human LNCaP cells assessed as induction of change in extracellular metabolites level by measuring threitol/erythritol level at 1 mM incubated for 72 hrs by GC/MS analysis; assay type: cell-based
[15] = biological target: T1, Olfactory receptor 51E2 (Homo sapiens); assay: Agonist activity at PSGR/OR51E2 in human LNCaP cells assessed as induction of change in intracellular metabolites level by measuring threitol/erythritol level at 1 mM incubated for 72 hrs by GC/MS analysis; assay type: cell-based
[16] = biological target: T1, Olfactory receptor 51E2 (Homo sapiens); assay: Agonist activity at PSGR/OR51E2 in human LNCaP cells assessed as induction of change in intracellular metabolites level by measuring glutamic acid level at 1 mM incubated for 72 hrs by GC/MS analysis; assay type: cell-based
[17] = biological target: T1, Olfactory receptor 51E2 (Homo sapiens); assay: Agonist activity at PSGR/OR51E2 in human LNCaP cells assessed as induction of change in intracellular metabolites level by measuring lactose level at 1 mM incubated for 72 hrs by GC/MS analysis; assay type: cell-based
[18] = biological target: T1, Olfactory receptor 51E2 (Homo sapiens); assay: Agonist activity at PSGR/OR51E2 in human LNCaP cells assessed as induction of change in intracellular metabolites level by measuring glycine level at 1 mM incubated for 72 hrs by GC/MS analysis; assay type: cell-based
[19] = biological target: T1, Olfactory receptor 51E2 (Homo sapiens); assay: Agonist activity at PSGR/OR51E2 in human LNCaP cells assessed as induction of change in extracellular metabolites level by measuring threonine level at 1 mM incubated for 72 hrs by GC/MS analysis; assay type: cell-based
[20] = biological target: T1, Olfactory receptor 51E2 (Homo sapiens); assay: Agonist activity at PSGR/OR51E2 in human LNCaP cells assessed as induction of change in intracellular metabolites level by measuring glutamine level at 1 mM incubated for 72 hrs by GC/MS analysis; assay type: cell-based
[21] = biological target: T1, Olfactory receptor 51E2 (Homo sapiens); assay: Agonist activity at PSGR/OR51E2 in human LNCaP cells assessed as induction of change in extracellular metabolites level by measuring glutamine level at 1 mM incubated for 72 hrs by GC/MS analysis; assay type: cell-based
[22] = biological target: T1, Olfactory receptor 51E2 (Homo sapiens); assay: Agonist activity at PSGR/OR51E2 in human LNCaP cells assessed as induction of change in intracellular metabolites level by measuring ornithine level at 1 mM incubated for 72 hrs by GC/MS analysis; assay type: cell-based
[23] = biological target: T1, Olfactory receptor 51E2 (Homo sapiens); assay: Agonist activity at PSGR/OR51E2 in human LNCaP cells assessed as induction of change in intracellular metabolites level by measuring tyramine level at 1 mM incubated for 72 hrs by GC/MS analysis; assay type: cell-based
[24] = biological target: T1, Olfactory receptor 51E2 (Homo sapiens); assay: Agonist activity at PSGR/OR51E2 in human LNCaP cells assessed as induction of change in extracellular metabolites level by measuring guanine level at 1 mM incubated for 72 hrs by GC/MS analysis; assay type: cell-based
[25] = biological target: T1, Olfactory receptor 51E2 (Homo sapiens); assay: Agonist activity at PSGR/OR51E2 in human LNCaP cells assessed as induction of change in intracellular metabolites level by measuring guanine level at 1 mM incubated for 72 hrs by GC/MS analysis; assay type: cell-based
[26] = biological target: T1, Olfactory receptor 51E2 (Homo sapiens); assay: Agonist activity at PSGR/OR51E2 in human LNCaP cells assessed as induction of change in extracellular metabolites level by measuring spermine level at 1 mM incubated for 72 hrs by GC/MS analysis; assay type: cell-based
[27] = biological target: T1, Olfactory receptor 51E2 (Homo sapiens); assay: Agonist activity at PSGR/OR51E2 in human LNCaP cells assessed as induction of change in extracellular metabolites level by measuring serine level at 1 mM incubated for 72 hrs by GC/MS analysis; assay type: cell-based
[28] = biological target: T1, Olfactory receptor 51E2 (Homo sapiens); assay: Agonist activity at PSGR/OR51E2 in human LNCaP cells assessed as induction of change in extracellular metabolites level by measuring ornithine level at 1 mM incubated for 72 hrs by GC/MS analysis; assay type: cell-based
[29] = biological target: T1, Olfactory receptor 51E2 (Homo sapiens); assay: Agonist activity at PSGR/OR51E2 in human LNCaP cells assessed as induction of change in intracellular metabolites level by measuring dehydro-alanine level at 1 mM incubated for 72 hrs by GC/MS analysis; assay type: cell-based
[30] = biological target: T1, Olfactory receptor 51E2 (Homo sapiens); assay: Agonist activity at PSGR/OR51E2 in human LNCaP cells assessed as induction of change in intracellular metabolites level by measuring spermine level at 1 mM incubated for 72 hrs by GC/MS analysis; assay type: cell-based
LNCaP = assay: Growth inhibition of human LNCAP cells incubated for 7 days by CellTiter-Glo assay; assay type: functional, cell-based

CCC(=O)O
active: Activity [1] | Activity [2] | Activity [3] | Activity [4] | Activity [5] | Activity [6] | Activity [7] | Activity [8] | Activity [9] | Activity [10] | Activity [11] | Activity [12] | Activity [13] | Activity [14] | Activity [15] | Activity [16] | Activity [17] | Activity [18] | Activity [19] | Activity [20] | Activity [21] | Activity [22] | Activity [23] | Activity [24] | Activity [25] | Activity [26] | Activity [27] | Activity [28] | Activity [29] | Activity [30]

CC1=C(/C=C/C(C)=C/C=C/C(C)=C\C(=O)O)C(C)(C)CCC1
active: growth inhibition (GI) (LNCaP)

From ChEMBL document CHEMBL4482311, “Modulators of Prostate-Specific G-Protein Receptor (PSGR/OR51E2) and Methods of Using Same” (2018)
